Test results published in US20190000128A1, “INFANT FORMULA COMPRISING HUMAN MILK PEPTIDES” (THE A2 MILK COMPANY LIMITED, priority 2015, published 2019).

System: neuronal stem cell (NSC) cultures / foetal stem cells
Test: Neuronal stem cell neurogenesis, differentiation and proliferation by immunocytochemistry
Type: cell-based
Details: foetal stem cells treated with 1 μM; FIG. 3B
Procedure: Previously isolated and frozen neuronal stem cell cultures were properly thawed, maintained and cultured. Cell suspensions were grown in a defined medium (DF12) composed of DMEM/F12 (1:1), 2 mM L-glutamine, 1 mM sodium pyruvate, antibiotics/antimycotics (Invitrogen, Grand Island, N.Y.), 0.6% glucose, 25 μg/ml insulin, 20 nM progesterone, 60 μM putrescine, 30 nM sodium selenite (all from Sigma, St. Louis, Mo.), 100 μg/ml human transferrin (Roche, Indianapolis, Ind.), 20 ng/ml human recombinant […] growth factor (EGF; Roche or Invitrogen, Chicago, Ill.) and basic fibroblast growth factor (bFGF; Upstate Biotechnology, Lake Placid, N.Y.). The cells grew as free-floating aggregates (neurospheres) and were passaged by mechanical dissociation every 3-4 d. […]
To identify proliferating cells, 100 μM BrdU, an analog of thymidine, was added 24 h before cell fixation. […] A primary monoclonal antibody against BrdU (1:20; Dakopatts) was added for 1 h at room temperature and detected using AlexaFluor 488-labelled goat anti-mouse IgG (H+L). […] Apoptotic cells were visualised with Hoechst 33342 (LifeTechnologies, Md.) as fragmented pycnotic blue-stained nuclei and counted under the fluorescence microscope (López-Toledano M.A. and Shelanski M.L., 2004 Neurogenic effect of beta-amyloid peptide in the development of neural stem cells. J Neurosci. 24(23):5439-44). […]

**Q.** With `CN1CC[C@]23c4c5ccc(O)c4O[C@H]2[C@@H](O)C=C[C@H]3[C@H]1C5` [morphine, Morphine] as the compound, how does the “neuronal proliferation (image of magnified foetal stem cells)” value read?
**A.** extensive neuronal proliferation
